Laboratory results: US20130204033A1, “ANTIPROLIFERATIVE COMPOUNDS, CONJUGATES THEREOF, METHODS THEREFOR, AND USES THEREOF” (Medarex, Inc., priority 2009, published 2013)
pEC50: −log10 of the molar value.

Assays:
Assay type in all cases: cell-based, human
786-O = assay: ATP luminescence proliferation assay, 786-O; conditions: Homo sapiens, 786-0, 72 h, read-out: EC50 786-O (72 h), ATP luminescence, 786-O, 72 h incubation
Description: (§1) This example generally describes the procedures used to assay the antiproliferative activity of compounds of this invention or their conjugates. Human tumor cell lines were obtained from the American Type Culture Collection (ATCC), P.O. Box 1549, Manassas, Va. 20108, USA, and cultured according to instruction from the ATCC. Cells were seeded at 1.0×10^3 or 1.0×10^4 cells/well in 96-well plates for 3 h for ATP assays or ^3H thymidine assays, respectively. 1:3 serial dilutions of free (unconjugated) compounds or their conjugates were added to the wells. Plates were allowed to incubate for 24 to 72 h. The ^3H thymidine plates were pulsed with 1.0 μCi of ^3H-thymidine per well for the last 24 hours of the total incubation period, harvested, and read on a Top Count Scintillation Counter (Packard Instruments, Meriden, Conn.). ATP levels in the ATP plates were measured using the […]-GLO® Luminescent Cell Viability kit following the manufacturer's manual and read on a GLOMAX® 20/20 luminometer (both from Promega, Madison, Wis., USA). The EC50 values—the concentration at which an agent inhibits or reduces cell proliferation by 50% —were determined using PRISM™ software, version 4.0 (GraphPad Software, La Jolla, Calif., USA).
(§2) Using the ^3H thymidine or the ATP luminescence assay, or both, the activities of compounds of this invention were assayed against the following cancer cell lines: HCT-15 (colorectal cancer, multi-drug resistant (MDR)); Hep3B (liver cancer); LNCaP (prostate cancer, androgen receptor positive (AR^+)); MDA-MB-231 (breast cancer, estrogen receptor, progesterone receptor, and Her2 negative (triple negative)); A2058 (melanoma); U-87 MG (glioblastoma); NCI-H460 (NSCLC); A549 (NSCLC); HPAC (pancreatic cancer, primary); PC3 (prostate cancer, AR); BT474 (breast cancer, Her2 highly positive (Her2hi)); SKOV3 (ovarian cancer, Her2hi); 786-O (renal cancer); UO-31 (renal cancer, MDR); NCI-H740 (SCLC); DMS53 (SCLC); SK-BR3 (breast cancer, Her2hi); ZR-75 (breast cancer, estrogen receptor positive); OVCAR3 (ovarian cancer); HL-60 (APL); OVCAR8/Adr (ovarian cancer, MDR); CEM-Cl (ALL); Nomo-1 (AML); RPMI-8226 (MM)); Raji (lymphoma); SW-480 (colorectal cancer, metastatic); SW-620 (colorectal cancer); and H226 (lung cancer). (Not all compounds were assayed against all cell lines.)
(§3) FIGS. 12a and 12b show illustrative plots for ATP luminescence proliferation assays for a second set of compounds of this invention, against HL-60 and 786-O cells, respectively, with an incubation period of 72 h. FIGS. 12c and 12d show the plots for ^3H thymidine proliferation assays for the same set of compounds, again against HL-60 and 786-O cells, respectively, with a 72 h incubation period. In each instance, doxorubicin was used as a comparative compound.
(§4) Table 3 provides the data for the ATP luminescence proliferation assays, with an incubation period of 48, 72, or 96 h, as noted.

OVCAR3 = assay: ATP luminescence proliferation assay, OVCAR3; conditions: Homo sapiens, OVCAR-3, 72 h, read-out: EC50 OVCAR3 (72 h), ATP luminescence, OVCAR3, 72 h incubation
Description: as §1, §2, §4

H226 = assay: ATP luminescence proliferation assay, H226; conditions: Homo sapiens, NCI-H226, 72 h incubation period, read-out: EC50 against the H226 cell line
Description: as §1, with “The EC50 values—the concentration at which an agent inhibits or reduces cell proliferation by 50% —were determined using PRISM™ software, version 4.0 (GraphPad Software, La Jolla, Calif., USA).” left out
as §2, with “(Not all compounds were assayed against all cell lines.)” left out

OVCAR8/Adr = assay: ATP luminescence proliferation assay, OVCAR8/Adr; conditions: Homo sapiens, OVCAR-8, 48 h incubation period, read-out: EC50 against the OVACAR8/Adr cell line
Description: as §1, §2, §4

HL-60 = assay: ATP luminescence proliferation assay, HL-60; conditions: Homo sapiens, HL-60, 48 h, read-out: EC50 HL-60 (48 h), ATP luminescence, HL-60, 48 h incubation
Description: as §1, §2, §3, §4

[1] = system: 786-O renal cancer cells, which are CD70 positive; assay: In vitro activity of conjugates, 3H thymidine proliferation assay, 786-O; conditions: 72 h incubation
Description: as §1
The incubation period was 72 h. The EC50 values extracted from the curves of FIG. 13 are given in Table 4, along data from other experiments. […]

Row | Molecule | pEC50 (786-O) | pEC50 (OVCAR3) | pEC50 (H226) | pEC50 (OVCAR8/Adr) | pEC50 (HL-60) | pEC50 [1]
1 | CCCN(C(=O)[C@@H](NC(=O)[C@H]1CCCCN1C)[C@@H](C)CC)[C@H](C[C@@H](OC(C)=O)c1nc(C(=O)N[C@@H](Cc2ccc(N)cc2)CC(C)C(=O)OCC)cs1)C(C)C (stereo partly drawn) [Compound 112] | 9.17 | 10.31 | 8.94 to 9.17 | 7.92 | 10.05 to 10.30 | 
2 | diphtheria toxin [DTX] |  |  |  |  |  | 6.98
